# Assay results as given in patent publication US6849653B2, “Substituted pyrazolyl benzenesulfamide compounds for the treatment of inflammation” (Pharmacia Corporation, priority 2001, dated 2005).
# Molecular target: T1, rhIKK1/IKK2 heterodimer (Homo sapiens, UniProt O14920+O15111)
# T1 construct: made in house; host or cells: insect cells (baculovirus coinfection; SF9)
# T1 sequence (O14920 1-756): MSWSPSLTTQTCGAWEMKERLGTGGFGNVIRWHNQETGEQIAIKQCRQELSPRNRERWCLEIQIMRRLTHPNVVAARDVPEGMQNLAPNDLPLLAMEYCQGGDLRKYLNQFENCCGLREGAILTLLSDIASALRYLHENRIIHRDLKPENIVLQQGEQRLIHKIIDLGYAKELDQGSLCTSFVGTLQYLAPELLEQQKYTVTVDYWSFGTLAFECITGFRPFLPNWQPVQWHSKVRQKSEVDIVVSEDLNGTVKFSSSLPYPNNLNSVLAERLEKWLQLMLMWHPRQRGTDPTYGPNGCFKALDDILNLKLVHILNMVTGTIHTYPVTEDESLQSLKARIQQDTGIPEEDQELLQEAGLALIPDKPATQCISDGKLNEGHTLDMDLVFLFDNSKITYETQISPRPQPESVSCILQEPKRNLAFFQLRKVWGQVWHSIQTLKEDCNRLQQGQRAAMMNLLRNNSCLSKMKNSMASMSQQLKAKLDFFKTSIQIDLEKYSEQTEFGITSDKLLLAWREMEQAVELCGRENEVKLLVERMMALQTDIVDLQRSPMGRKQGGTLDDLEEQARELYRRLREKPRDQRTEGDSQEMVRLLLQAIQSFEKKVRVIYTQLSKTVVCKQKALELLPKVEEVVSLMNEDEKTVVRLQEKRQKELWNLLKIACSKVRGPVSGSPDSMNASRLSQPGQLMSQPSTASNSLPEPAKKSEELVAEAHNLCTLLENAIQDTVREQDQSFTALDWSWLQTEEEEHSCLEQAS
# T1 sequence (O15111 1-745): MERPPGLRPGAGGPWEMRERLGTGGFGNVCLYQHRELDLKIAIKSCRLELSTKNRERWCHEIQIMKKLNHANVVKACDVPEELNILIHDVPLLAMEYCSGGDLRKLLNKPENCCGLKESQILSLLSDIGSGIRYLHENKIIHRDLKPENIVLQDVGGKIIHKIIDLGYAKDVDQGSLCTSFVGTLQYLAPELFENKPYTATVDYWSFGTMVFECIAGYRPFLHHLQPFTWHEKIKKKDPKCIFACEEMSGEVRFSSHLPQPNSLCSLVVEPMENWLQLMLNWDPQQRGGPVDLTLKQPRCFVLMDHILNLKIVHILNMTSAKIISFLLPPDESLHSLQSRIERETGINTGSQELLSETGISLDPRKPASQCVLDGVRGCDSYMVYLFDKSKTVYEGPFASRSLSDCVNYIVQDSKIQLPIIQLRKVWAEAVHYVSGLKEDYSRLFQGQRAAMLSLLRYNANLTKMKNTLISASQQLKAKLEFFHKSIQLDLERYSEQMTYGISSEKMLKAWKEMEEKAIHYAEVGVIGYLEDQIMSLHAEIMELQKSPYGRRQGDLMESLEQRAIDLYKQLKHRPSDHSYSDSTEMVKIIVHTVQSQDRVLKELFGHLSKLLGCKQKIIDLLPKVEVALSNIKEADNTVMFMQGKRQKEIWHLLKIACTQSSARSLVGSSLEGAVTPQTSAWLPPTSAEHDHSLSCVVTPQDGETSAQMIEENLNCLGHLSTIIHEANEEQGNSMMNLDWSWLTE
# Experiment: IKK Heterodimer Resin Enzyme Assay
# Type: biochemical
# Conditions: not given
# Text: cDNAs of human IKK1 and IKK2 were amplified by reverse transcriptase-polymerase chain reaction from human placental RNA (Clonetech). hIKK1 was subcloned into pFastBac HTa (Life Technologies) and expressed as N-terminal His6-tagged fusion protein. The hIKK2 cDNA was amplified using a reverse oligonucleotide primer which incorporated the peptide sequence for a FLAG-epitope tag at the C-terminus of the IKK2 coding region ([…]). The hIKK2:FLAG cDNA was subcloned into the baculovirus vector pFastBac. The rhIKK2 ([…]) mutant was constructed in the same vector used for wild type rhIKK2 using a QuikChange™ mutagenesis kit (Stratagene). Viral stocks of each construct were used to infect insect cells grown in 40L suspension culture. […] Cell lysates were stored at −80° C. until purification of the recombinant proteins was undertaken as described below.
# Isolation of rhIKK1/IKK2 Heterodimer
# The heterodimer enzyme was produced by coinfection in a baculovirus system (FLAG IKK2/IKK1 His; MOI=0.1 and I=72 hrs). Infected cells were centrifuged and the cell pellet (10.0 g) was suspended in 50 ml of buffer A. The protein suspension was microfluidized and centrifuged at 100,000×g for 45 min. Imidazole was added to the supernatant to a final concentration of 10 mM. The protein was allowed to bind 25 ml of Ni-NTA resin by mixing for 2 hrs. The protein-resin slurry was poured into a 25 ml column and washed with 250 ml of buffer A containing 10 mM imidazole followed by 125 ml of buffer A containing 50 mM imidazole. Buffer A, containing 300 mM imidazole, was then used to elute the protein. A 75 ml pool was collected and NP-40 was added to a final concentration of 0.1%. […] The protein-resin slurry was then centrifuged for 5 min at 2,000 rpm. The supernatant was collected and the resin re-suspended in 100 ml of buffer C containing 0.1% NP-40. The resin was washed with 375 ml of buffer C containing 0.1% NP-40. The protein-resin was poured into a 25 ml column and the enzyme eluted using buffer B containing FLAG peptide. Enzyme fractions (100 ml) were collected and concentrated to 20 ml using an Amicon membrane with molecular weight cut-off of 30 kDa. Bovine serum albumin was added to the concentrated enzyme to final concentration of 0.1%. The enzyme was then aliquoted and stored at −80° C.
# IKK Heterodimer Resin Enzyme Assay
# Resin was allowed to settle for one hour and 50 ul of supernatant was removed to a Micolite-2 flat bottom plate (Dynex). 150 μl of scintillation fluid (Microscint 40) (Packard) was added to each well. Incorporation of [γ-^33P] ATP was measured using a Top-Count NXT (Packard).
row,IC50 [nM],Compound
1,1000 to 10000,"COc1ccccc1C(=O)Nc1ccc2ccc3c(C(N)=O)nn(-c4ccc(S(N)(=O)=O)cc4)c3c2c1 [Example 25, 1-[4-(aminosulfonyl)phenyl]-8-[(2-methoxybenzoyl)amino]-1H-benzo[g]indazole-3-carboxamide]"

# Same assay, conditions: Table 1; values given as bins; read-out: HetD (IKK heterodimer assay values expressed as IC50)
row,Compound,IC50 [nM]
1,"NC(=O)c1nn(-c2ccc(S(N)(=O)=O)cc2)c2c1ccc1ccc(NS(=O)(=O)c3cc(Cl)c(Cl)cc3Cl)cc12 [Example 23, 1-[4-(aminosulfonyl)phenyl]-8-{[(2,4,5-trichlorophenyl)sulfonyl]amino}-1H-benzo[g]indazole-3-carboxamide]",1000 to 10000
2,"CC(=O)Nc1ccc2ccc3c(C(N)=O)nn(-c4ccc(S(N)(=O)=O)cc4)c3c2c1 [Example 20, 8-(acetylamino)-1-[4-(aminosulfonyl)phenyl]-1H-benzo[g]indazole-3-carboxamide]",≤ 1000
3,"NC(=O)c1nn(-c2ccc(S(N)(=O)=O)cc2)c2c1ccc1ccc(NS(=O)(=O)c3cccc(Br)c3)cc12 [Example 15, 1-[4-(aminosulfonyl)phenyl]-8-{[(3-bromophenyl)sulfonyl]amino}-1H-benzo[g]indazole-3-carboxamide]",1000 to 10000
4,"NC(=O)c1nn(-c2ccc(S(N)(=O)=O)cc2)c2c1ccc1ccc(NC(=O)c3cccc(C(F)(F)F)c3)cc12 [Example 10, 1-[4-(aminosulfonyl)phenyl]-8-{[3-(trifluoromethyl)benzoyl]amino}-1H-benzo[g]indazole-3-carboxamide]",1000 to 10000
5,8-amino-1-{4-[(aminothio)peroxy]phenyl}-1H-benzo[g]indazole-3-carboxamide [Example 4c],≤ 1000
6,"C=CCN(CC=C)S(=O)(=O)c1ccc(-n2nc(C(N)=O)c3ccc4ccc(N)cc4c32)cc1 [Example 7, 8-amino-1-{4-[(diallylamino)sulfonyl]phenyl}-1H-benzo[g]indazole-3-carboxamide]",≤ 1000
7,"NC(=O)c1nn(-c2ccc(S(N)(=O)=O)cc2)c2c1ccc1ccc(NC(=O)c3c(Cl)cccc3Cl)cc12 [Example 28, 1-[4-(aminosulfonyl)phenyl]-8-[(2,6-dichlorobenzoyl)amino]-1H-benzo[g]indazole-3-carboxamide]",≤ 1000
8,"NC(=O)c1nn(-c2ccc(S(N)(=O)=O)cc2)c2c1ccc1ccc(NS(=O)(=O)c3cccc(C(F)(F)F)c3)cc12 [Example 19, 1-[4-(aminosulfonyl)phenyl]-8-({[3-(trifluoromethyl)phenyl]sulfonyl}amino)-1H-benzo[g]indazole-3-carboxamide]",10000 to 100000
9,"NC(=O)c1nn(-c2ccc(S(N)(=O)=O)cc2)c2c1ccc1ccc(NS(=O)(=O)c3ccc(Cl)c(Cl)c3)cc12 [Example 22, 1-[4-(aminosulfonyl)phenyl]-8-{[(3,4-dichlorophenyl)sulfonyl]amino}-1H-benzo[g]indazole-3-carboxamide]",1000 to 10000

# Other lines, results leading:
row,IC50 [nM],Compound
1,≤ 1000,"COc1cccc(C(=O)Nc2ccc3ccc4c(C(N)=O)nn(-c5ccc(S(N)(=O)=O)cc5)c4c3c2)c1 [Example 8, 1-[4-(aminosulfonyl)phenyl]-8-[(3-methoxybenzoyl)amino]-1H-benzo[g]indazole-3-carboxamide]"
2,≤ 1000,"NC(=O)c1nn(-c2ccc(S(N)(=O)=O)cc2)c2c1ccc1ccc(NC(=O)c3ccccc3Cl)cc12 [Example 14, 1-[4-(aminosulfonyl)phenyl]-8-[(2-chlorobenzoyl)amino]-1H-benzo[g]indazole-3-carboxamide]"
3,≤ 1000,"NC(=O)c1nn(-c2ccc(S(N)(=O)=O)cc2)c2c1ccc1ccc(NC(=O)c3ccccc3C(F)(F)F)cc12 [Example 26, 1-[4-(aminosulfonyl)phenyl]-8-{[2-(trifluoromethyl)benzoyl]amino}-1H-benzo[g]indazole-3-carboxamide]"
4,≤ 1000,"NC(=O)c1nn(-c2ccc(S(N)(=O)=O)cc2)c2c1ccc1ccc(NC(=O)c3cccnc3Cl)cc12 [Example 32, 1-[4-(aminosulfonyl)phenyl]-8-{[(2-chloropyridin-3-yl)carbonyl]amino}-1H-benzo[g]indazole-3-carboxamide]"
5,≤ 1000,"NC(=O)c1nn(-c2ccc(S(N)(=O)=O)cc2)c2c1ccc1ccc(NC(=O)c3cccnc3)cc12 [Example 13, 1-[4-(aminosulfonyl)phenyl]-8-[(pyridin-3-ylcarbonyl)amino]-1H-benzo[g]indazole-3-carboxamide]"
6,≤ 1000,"NC(=O)c1nn(-c2ccc(S(N)(=O)=O)cc2)c2c1ccc1ccc(NC(=O)c3cccc(Br)c3)cc12 [Example 12, 1-[4-(aminosulfonyl)phenyl]-8-[(3-bromobenzoyl)amino]-1H-benzo[g]indazole-3-carboxamide]"
7,≤ 1000,"NC(=O)c1nn(-c2ccc(S(N)(=O)=O)cc2)c2c1ccc1ccc(NC(=O)c3ccncc3)cc12 [Example 34, 1-[4-(aminosulfonyl)phenyl]-8-(isonicotinoylamino)-1H-benzo[g]indazole-3-carboxamide]"
8,≤ 1000,"NC(=O)c1nn(-c2ccc(S(N)(=O)=O)cc2)c2c1ccc1ccc(NC(=O)c3cccc(Cl)c3Cl)cc12 [Example 30, 1-[4-(aminosulfonyl)phenyl]-8-[(2,3-dichlorobenzoyl)amino]-1H-benzo[g]indazole-3-carboxamide]"
9,≤ 1000,NC(=O)c1nn(-c2ccc(S(N)(=O)=O)cc2)c2c1ccc1ccc(NC(=O)c3ccccc3OC(F)(F)F)cc12 [Example 29]
10,≤ 1000,"Cc1ccccc1C(=O)Nc1ccc2ccc3c(C(N)=O)nn(-c4ccc(S(N)(=O)=O)cc4)c3c2c1 [Example 27, 1-[4-(aminosulfonyl)phenyl]-8-[(2-methylbenzoyl)amino]-1H-benzo[g]indazole-3-carboxamide]"
11,≤ 1000,"NC(=O)c1nn(-c2ccc(S(N)(=O)=O)cc2)c2c1ccc1ccc(NC(=O)c3ccccc3F)cc12 [Example 31, 1-[4-(aminosulfonyl)phenyl]-8-[(2-fluorobenzoyl)amino]-1H-benzo[g]indazole-3-carboxamide]"
12,≤ 1000,"Cc1cccc(C(=O)Nc2ccc3ccc4c(C(N)=O)nn(-c5ccc(S(N)(=O)=O)cc5)c4c3c2)c1 [Example 11, 1-[4-(aminosulfonyl)phenyl]-8-[(3-methylbenzoyl)amino]-1H-benzo[g]indazole-3-carboxamide]"
